In the supplement of paper PMC10307832:

Key:
Assay in all cases: relative viability (nuclei count vs DMSO), 5 days (fraction); higher = more cells survive
[1] = compound: NCC(=O)Nc1ccc(-n2nc(C(F)(F)F)cc2-c2ccc3c(ccc4ccccc43)c2)cc1 + COc1cc2c(Oc3ccc(NC(=O)C4(C(=O)Nc5ccc(F)cc5)CC4)cc3F)ccnc2cc1OCCCN1CCOCC1 [Foretinib] (partner 0.25 µM)
In short: (§1)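 Relative viability is defined as nuclei in treated wells over nuclei in vehicle wells. Duplicate plates were run and medians reported. Lung cancer cell lines in 1536-well plates were dosed by pin tool one day after seeding, with one drug or with a fixed anchor-drug dose plus five library-drug doses (not always all listed) in √10 steps, and nuclei were counted after 5 days.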

[2] = compound: NCC(=O)Nc1ccc(-n2nc(C(F)(F)F)cc2-c2ccc3c(ccc4ccccc43)c2)cc1 + Nc1ncn([C@H]2C[C@H](O)[C@@H](CO)O2)c(=O)n1 [Decitabine] (partner 2 µM)
In short: as §1

[3] = compound: C1CSC2=C(C(=O)N1)SC3=C2C=C(C=C3)O [kb NB 142-70] + O=C(c1cc(Cc2n[nH]c(=O)c3ccccc23)ccc1F)N1CCN(C(=O)C2CC2)CC1 [Olaparib] (partner 8 µM)
In short: as §1

[4] = compound: NCC(=O)Nc1ccc(-n2nc(C(F)(F)F)cc2-c2ccc3c(ccc4ccccc43)c2)cc1 + C[C@]1(O)C[C@@H](c2nc(-c3ccc4ccc(-c5ccccc5)nc4c3)c3c(N)nccn32)C1 [Linsitinib] (partner 1 µM)
In short: as §1

Cell Line	relative viability ([1]; first compound 0.02 µM)	relative viability ([1]; first compound 0.06325 µM)	relative viability ([1]; first compound 0.2 µM)	relative viability ([1]; first compound 0.6325 µM)	relative viability ([1]; first compound 2 µM)	relative viability ([2]; first compound 0.02 µM)	relative viability ([2]; first compound 0.06325 µM)	relative viability ([2]; first compound 0.2 µM)	relative viability ([2]; first compound 0.6325 µM)	relative viability ([2]; first compound 2 µM)	relative viability ([3]; first compound 0.1 µM)	relative viability ([3]; first compound 1 µM)	relative viability ([3]; first compound 3.162 µM)	relative viability ([4]; first compound 0.02 µM)	relative viability ([4]; first compound 0.06325 µM)	relative viability ([4]; first compound 0.2 µM)	relative viability ([4]; first compound 0.6325 µM)	relative viability ([4]; first compound 2 µM)
201T	1.12	1.2	1.17	1.1	1.15	0.838	0.846	0.901	0.87	0.846	0.828	0.87	0.85	0.957	1.01	1.09	1.09	1.04
A549	0.923	0.956	0.917	1.01	0.971	0.263	0.249	0.2	0.257	0.31	0.305	0.363	0.155	0.626	0.599	0.608	0.579	0.614
A-427		1.2	1.1	1.11	0.959	0.502	0.544	0.583	0.545	0.57	0.747	0.77	0.52	1.12	1.17	1.16	1.02	1.03
ABC-1	1.29	1.15		0.988	1.2	0.917	1.02		0.954	1.13	0.712	0.746	0.427	0.731	0.917		0.915	0.855
BEN	0.635	0.602	0.561	0.681	0.657	0.69	0.669	0.7	0.709	0.77	1.09	1.21	1.01	0.885	1.06	0.923	0.861	0.914
CAL-12T	1.28	1.29	1.15	1.14	1.12						0.7	0.691	0.677	0.718	0.836	0.865	0.775	0.819
COR-L23	0.982	0.912	1.13	1.04	0.973	0.437	0.434	0.475	0.413	0.309	0.344	0.442	0.263	0.989	0.927	1.05	0.896	0.95
COR-L 105	1.15	1.26	1.14	0.985	1.04	0.726	0.588	0.698	0.635	0.653	0.82	0.637	0.726	0.918	0.943	0.98	1.02	1.15
Calu-6	0.843	0.87	0.857	0.896	0.891						0.589	0.457	0.287	0.914	0.939	1.06	0.911	0.983
ChaGo-K-1	0.866	0.956	0.847	0.937	0.77	0.55	0.526	0.506	0.522	0.549	0.489	0.361	0.362					
EBC-1	0.0952	0.0845	0.105	0.0991	0.0847						0.775	0.587	0.385	0.888	0.856	0.892	0.899	0.895
EKVX	0.905	1.05	0.602	0.77	0.626	0.365	0.368	0.369	0.393	0.361	0.853	0.88	0.984	1.04	1.06	0.987	1.01	1.11
EMC-BAC-2	0.957	0.966	1.02	1.09	1.05	1.02	0.998	1.05	0.948	0.944	0.531	0.505	0.384	0.86	0.848	0.853	0.81	0.821
EPLC-272H	0.686	0.688	0.752	0.581	0.79	0.382	0.35	0.331	0.423	0.372	0.761	0.481	0.121	1.38	1.06	1.18	1.22	1.18
H3255	0.823	1.04	0.858	1.11	0.89	0.669	0.479	0.643	0.715	0.667	0.559	0.577	0.604	0.916	0.945	0.958	0.961	0.919
HARA	0.976	0.991	0.889	0.961	0.974	0.581	0.611	0.537	0.654	0.528	0.873	0.602	0.547	0.935	1.01	1.18	0.965	0.935
HCC-15	1.07	1.04	1.08	1.1	1.07	0.623	0.659	0.677	0.67	0.654	0.722	0.748	0.752	0.865	0.871	0.897	0.891	0.944
HCC-44						0.885	0.956	0.933	0.905	0.927	0.945	0.981	0.974	0.648	0.688	0.697	0.632	0.652
HCC-78	0.551	0.565	0.52	0.577	0.621	0.788	0.763	0.698	0.675	0.658	0.791	0.773	0.83	0.572	0.563	0.498	0.49	0.541
HCC-366	0.918	0.911	0.984	0.924	0.992	0.353	0.369	0.367	0.352	0.517	0.371	0.509	0.443	0.784	0.645	0.431	0.557	0.675
HCC-827	1.1	1.09	0.98	0.991	1.08	0.315	0.212	0.31	0.309	0.335	0.655	0.62	0.404	0.93	0.972	1	0.956	0.958

Cell Line	relative viability ([1]; first compound 0.02 µM)	relative viability ([1]; first compound 0.06325 µM)	relative viability ([1]; first compound 0.2 µM)	relative viability ([1]; first compound 0.6325 µM)	relative viability ([1]; first compound 2 µM)	relative viability ([2]; first compound 0.02 µM)	relative viability ([2]; first compound 0.06325 µM)	relative viability ([2]; first compound 0.2 µM)	relative viability ([2]; first compound 0.6325 µM)	relative viability ([2]; first compound 2 µM)	relative viability ([3]; first compound 0.1 µM)	relative viability ([3]; first compound 1 µM)	relative viability ([3]; first compound 3.162 µM)	relative viability ([4]; first compound 0.02 µM)	relative viability ([4]; first compound 0.06325 µM)	relative viability ([4]; first compound 0.2 µM)	relative viability ([4]; first compound 0.6325 µM)	relative viability ([4]; first compound 2 µM)
HOP-62	1.19	1.16	0.966	1.01	1.04	0.214	0.228	0.225	0.206	0.192	0.457	0.39	0.333	1.14	0.901	0.854	1.03	1.05
IA-LM	1.26	1.05	1.14	1.01	1.19						0.841	0.771	0.807	0.802	0.39	0.558	0.706	0.539
LC-2-ad	0.93	0.998	0.891	0.954	0.984	0.808	0.779	0.831	0.789	0.774	0.681	0.716	0.649	0.996	0.94	0.876	0.852	0.897
LCLC-97TM1	0.87	0.999	0.924	0.945	0.96	0.237	0.24	0.252	0.19	0.221	0.404	0.371	0.198	0.146	0.185		0.198	0.183
LCLC-103H	0.703	0.71	0.938	0.754	0.736	0.735	0.742	0.809	0.763	0.748	0.751	0.749	0.847	1.16	0.997	1.12	1.11	0.978
LK-2	0.93	1.35	1.35	1.37	1.39	0.283	0.268	0.249	0.319	0.278	0.822	0.551	0.323	0.686	0.437	0.483	0.555	0.522
LOU-NH91	0.994	0.959	0.965	0.929	1.01	0.836	0.829	0.816	0.849	0.84	0.879	0.917	0.552	0.984	1.04	0.891	0.959	1.09
LU99A	0.855	0.783	0.932	0.79	0.853	0.817	0.987	0.838	0.843	0.91	0.274	0.291	0.251	0.556	0.571	0.555	0.618	0.532
LXF-289	0.973	0.979	0.967	0.943	0.968	0.376	0.388	0.371	0.416	0.333	1.04	1.05	0.772	0.924	0.995	0.989	0.985	0.901
NCI-H522						0.638	0.619	0.673	0.681	0.608	0.69	0.587	0.509					
NCI-H1299	1.16	1.12	1.14	1.04	1.15						1.02	0.949	0.837	0.937	0.971	1.05	0.929	0.999
NCI-H1563	0.958	1.04	0.94	0.984	0.971									1.33	1.22	1.2	1.19	1.28
NCI-H1623	1.02	0.935	0.77	0.84	0.923													
NCI-H1648						0.577	0.515	0.479	0.549	0.445	0.645	0.707	0.738					
NCI-H1650	1.42	1.25		1.43	1.19	0.381	0.459	0.431	0.355	0.508	0.9	0.881	0.854					
NCI-H1703	0.32	0.289	0.412	0.323	0.34						0.47	0.387	0.455	0.718	0.781	0.52	0.691	0.591
NCI-H1792						0.705	0.569	0.479	0.605	0.582	0.406	0.547	0.619	0.507	0.647	0.549	0.625	0.552
NCI-H2170	0.995	0.975	1.04	0.985	1.02	0.496	0.454	0.518	0.446	0.45	0.661	0.596	0.543					
NCI-H2228	1.05	0.974	0.889	0.97	0.972						0.694	0.587	0.362	0.872	0.676	0.707	0.603	0.79
NCI-H2342	1.05	1.16	1.18	0.97	1.24	0.653	0.775	0.788	0.709	0.744	0.397	0.458	0.408					
SW 900		1	0.863	0.855	1.04	0.43	0.452	0.607	0.406	0.444	0.906	1.14	0.789					
